Data: patent publication US12441725B2, “ISO-citrate dehydrogenase (IDH) inhibitor” (ZHEJIANG METON PHARMACEUTICAL CO., LTD, priority 2019, dated 2025)

Tests used:
IDH1 R132C = molecular target: T1, IDH1 R132C (Homo sapiens, UniProt O75874, R132C); assay: Biochemical assay for IDH inhibition (NADPH fluorescence), mutant IDH1 R132C; conditions: 25 nM IDH1-R132C, 1 hour pre-incubation, in triplet
T1 construct: 6xHis
How it was run: (§1)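 Mutant enzyme (25 nM R132C or 50 nM R132H) was preincubated 1 h at room temperature with compound in pH 7.5 Tris buffer containing 1.33 mM α-KG, and the reaction was then started with NADPH (80 μM solution). NADPH consumption was followed by fluorescence (Ex 340/Em 460 nm) for 15 min. IC50 was derived from background-corrected linear rates relative to vehicle, run in triplicate.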

IDH1 R132H = molecular target: T2, IDH1 R132H (Homo sapiens, UniProt O75874, R132H); assay: Biochemical assay for IDH inhibition (NADPH fluorescence), mutant IDH1 R132H; conditions: 50 nM IDH1-R132H, 1 hour pre-incubation, in triplet
T2 construct: 6xHis
T2 sequence (O75874 whole entry R132H): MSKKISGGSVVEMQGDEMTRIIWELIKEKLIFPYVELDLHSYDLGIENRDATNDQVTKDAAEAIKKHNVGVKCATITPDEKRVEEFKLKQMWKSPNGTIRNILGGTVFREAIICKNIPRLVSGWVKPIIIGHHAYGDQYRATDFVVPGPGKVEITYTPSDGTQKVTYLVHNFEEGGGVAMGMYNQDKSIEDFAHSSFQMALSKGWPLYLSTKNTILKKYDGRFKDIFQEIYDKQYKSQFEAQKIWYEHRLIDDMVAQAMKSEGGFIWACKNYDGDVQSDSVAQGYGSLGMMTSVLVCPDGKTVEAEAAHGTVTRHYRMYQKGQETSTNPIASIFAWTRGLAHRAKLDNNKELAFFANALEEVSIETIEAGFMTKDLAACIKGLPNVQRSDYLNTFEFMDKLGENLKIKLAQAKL
How it was run: as §1

[1] = molecular target: T3, IDH (endogenous IDH1 R132C) in HT1080 cell (Homo sapiens, UniProt O75874, R132C); assay: Cell-based assay for IDH inhibition (decrease of D-2-HG) in HT1080 cells; conditions: human fibrosarcoma cell line HT1080, 16 hours treatment, D-2-HG by LC-MS, in triplet
T3 construct: which harbor endogenous heterozygous IDH1 R132C and R132H mutation respectively and accumulate D-2-HG
T3 sequence (O75874 2-414 R132C): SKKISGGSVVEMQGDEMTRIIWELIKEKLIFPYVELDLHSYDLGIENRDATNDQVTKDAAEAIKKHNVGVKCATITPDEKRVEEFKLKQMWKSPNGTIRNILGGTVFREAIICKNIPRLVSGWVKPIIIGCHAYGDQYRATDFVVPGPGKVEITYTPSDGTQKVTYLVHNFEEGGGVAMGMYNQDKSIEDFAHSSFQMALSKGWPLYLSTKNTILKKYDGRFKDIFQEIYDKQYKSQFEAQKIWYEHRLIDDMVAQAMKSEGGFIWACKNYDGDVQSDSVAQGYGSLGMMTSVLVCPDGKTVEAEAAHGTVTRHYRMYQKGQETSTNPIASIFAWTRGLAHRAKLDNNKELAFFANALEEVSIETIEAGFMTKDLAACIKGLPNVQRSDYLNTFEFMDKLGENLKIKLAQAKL
How it was run: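 HT1080 cells with endogenous IDH1 R132C, grown in DMEM/10% FBS, treated with compound at several concentrations for 16 h. Metabolites extracted in cold 40% methanol/40% acetonitrile and D-2-HG measured by HILIC LC-MS/MS, normalized to glutamate. IC50 from D-2-HG relative to DMSO controls; run in triplicate.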

T1 sequence (O75874 whole entry R132C): as the sequence (O75874 whole entry R132H) above, with H132C counted along it

For CCN1Cc2c(N[C@@H](C)c3ccc(-c4ccc(F)c(C)c4)c(F)c3)ncnc2C1=O [Compound 67, (S)-4-((1-(2,4′-difluoro-3′-methyl-[1,1′-biphenyl]-4-yl)ethyl)amino)-6-ethyl-5H-pyrrolo[3,4-d]pyrimidin-7(6H)-one], the IC50 (IDH1 R132C) was greater than 1000 nM, the IC50 (IDH1 R132H) was greater than 1000 nM and the IC50 [1] was 100 to 500 nM.
CCN1Cc2c(ccnc2N[C@H](C)c2cn(-c3ccc(Cl)cc3)cn2)C1=O [Compound 58, (R)-4-((1-(1-(4-chlorophenyl)-1H-imidazol-4-yl)ethyl)amino)-2-ethyl-2,3-dihydro-1H-pyrrolo[3,4-c]pyridin-1-one] gave an IC50 (IDH1 R132C) greater than 1000 nM, an IC50 (IDH1 R132H) greater than 1000 nM and an IC50 [1] greater than 1000 nM.
For CCN1Cc2c(ccnc2N[C@@H](C)c2cc(F)c(-c3cc(C(C)(C)F)cc(CF)n3)cc2F)C1=O [Compound 118, (S)-4-((1-(2,5-difluoro-4-(6-(fluoromethyl)-4-(2-fluoropropan-2-yl)pyridin-2-yl)phenyl)ethyl)amino)-2-ethyl-2,3-dihydro-1H-pyrrolo[3,4-c]pyridin-1-one], the IC50 (IDH1 R132C) was less than 100 nM, the IC50 (IDH1 R132H) was less than 100 nM and the IC50 [1] was less than 100 nM.
CCN1Cc2c(ccnc2N[C@@H](C)c2ccc(Oc3ccnc4ccccc34)c(F)c2)C1=O [Compound 30, (S)-2-ethyl-4-((1-(3-fluoro-4-(quinolin-4-yloxy)phenyl)ethyl)amino)-2,3-dihydro-1H-pyrrolo[3,4-c]pyridin-1-one] showed an IC50 (IDH1 R132C) greater than 1000 nM, an IC50 (IDH1 R132H) of 500 to 1000 nM and an IC50 [1] greater than 1000 nM.
With CCN1Cc2c(ccnc2N[C@@H](C)c2cc(C)c(-c3ccnc(C(F)(F)F)c3)cn2)C1=O [Compound 45, (S)-2-ethyl-4-((1-(4-methyl-2′-(trifluoromethyl)-[3,4′-bipyridin]-6-yl)ethyl)amino)-2,3-dihydro-1H-pyrrolo[3,4-c]pyridin-1-one] the IC50 (IDH1 R132C) was greater than 1000 nM, the IC50 (IDH1 R132H) was greater than 1000 nM and the IC50 [1] was greater than 1000 nM.
For CCN1Cc2c(ccnc2N[C@@H](C)c2cc(F)c(-c3cc(C(C)(C)F)ccn3)cc2F)C1=O [Compound 112, (S)-4-((1-(2,5-difluoro-4-(4-(2-fluoropropan-2-yl)pyridin-2-yl)phenyl)ethyl)amino)-2-ethyl-2,3-dihydro-1H-pyrrolo[3,4-c]pyridin-1-one], the IC50 (IDH1 R132C) was less than 100 nM, the IC50 (IDH1 R132H) was less than 100 nM and the IC50 [1] was less than 100 nM.
Work on CCN1Cc2c(ccnc2N[C@@H](C)c2cc(F)c(-c3cc(C(C)(C)C)ncc3O)cc2F)C1=O [Compound 138, (S)-4-((1-(4-(2-(tert-butyl)-5-hydroxypyridin-4-yl)-2,5-difluorophenyl)ethyl)amino)-2-ethyl-2,3-dihydro-1H-pyrrolo[3,4-c]pyridin-1-one] yielded an IC50 (IDH1 R132C) of less than 100 nM, an IC50 (IDH1 R132H) of less than 100 nM and an IC50 [1] of less than 100 nM.
CCN1Cc2c(ccnc2N[C@@H](C)c2ccc(OC3CCCC3)c(F)c2)C1=O [Compound 15, (S)-4-((1-(4-(cyclopentyloxy)-3-fluorophenyl)ethyl)amino)-2-ethyl-2,3-dihydro-1H-pyrrolo[3,4-c]pyridin-1-one] was tested, and the IC50 (IDH1 R132C) was 500 to 1000 nM, the IC50 (IDH1 R132H) was 100 to 500 nM and the IC50 [1] was greater than 1000 nM.
CCN1Cc2c(ccnc2N[C@@H](C)c2ccc(-c3ccc(C)cc3)c(F)c2)C1=O [Compound 73, (S)-2-ethyl-4-((1-(2-fluoro-4′-methyl-[1,1′-biphenyl]-4-yl)ethyl)amino)-2,3-dihydro-1H-pyrrolo[3,4-c]pyridin-1-one] was tested, and the IC50 (IDH1 R132C) was greater than 1000 nM, the IC50 (IDH1 R132H) was 100 to 500 nM and the IC50 [1] was greater than 1000 nM.
Work on CCN1Cc2c(ccnc2N[C@@H](C)c2cc(F)c(-c3ccnc(C4COC4)c3)cc2F)C1=O [Compound 93, (S)-4-((1-(2,5-difluoro-4-(2-(oxetan-3-yl)pyridin-4-yl)phenyl)ethyl)amino)-2-ethyl-2,3-dihydro-1H-pyrrolo[3,4-c]pyridin-1-one] yielded an IC50 (IDH1 R132C) greater than 1000 nM, an IC50 (IDH1 R132H) greater than 1000 nM and an IC50 [1] greater than 1000 nM.
With CCN1Cc2c(N[C@@H](C)c3ccc(-c4ccc(F)c(C)c4)c(F)c3)ncc(F)c2C1=O [Compound 41, (S)-4-((1-(2,4′-difluoro-3′-methyl-[1,1′-biphenyl]-4-yl)ethyl)amino)-2-ethyl-7-fluoro-2,3-dihydro-1H-pyrrolo[3,4-c]pyridin-1-one] the IC50 (IDH1 R132C) was 500 to 1000 nM, the IC50 (IDH1 R132H) was 100 to 500 nM and the IC50 [1] was greater than 1000 nM.
In the case of CCN1Cc2c(ccnc2N[C@@H](C)c2cc(F)c(-c3ccnc(-c4ccccc4)c3)cc2F)C1=O [Compound 98, (S)-4-((1-(2,5-difluoro-4-(2-phenylpyridin-4-yl)phenyl)ethyl)amino)-2-ethyl-2,3-dihydro-1H-pyrrolo[3,4-c]pyridin-1-one], the IC50 (IDH1 R132C) is reported as greater than 1000 nM, the IC50 (IDH1 R132H) is reported as 500 to 1000 nM and the IC50 [1] is reported as 100 to 500 nM.
CCN1Cc2c(ccnc2N[C@@H](C)c2cc(F)c(-c3ccnc(C(F)(F)C(F)(F)F)c3)cc2F)C1=O [Compound 107, (S)-4-((1-(2,5-difluoro-4-(2-(perfluoroethyl)pyridin-4-yl)phenyl)ethyl)amino)-2-ethyl-2,3-dihydro-1H-pyrrolo[3,4-c]pyridin-1-one] was tested, and the IC50 (IDH1 R132C) was less than 100 nM, the IC50 (IDH1 R132H) was less than 100 nM and the IC50 [1] was 100 to 500 nM.
CCN1Cc2c(ccnc2N[C@@H](C)c2cc(F)c(-c3cc(C(C)(C)C)ncc3F)cc2F)C1=O [Compound 104, (S)-4-((1-(4-(2-(tert-butyl)-5-fluoropyridin-4-yl)-2,5-difluorophenyl)ethyl)amino)-2-ethyl-2,3-dihydro-1H-pyrrolo[3,4-c]pyridin-1-one] was tested, and the IC50 (IDH1 R132C) was less than 100 nM, the IC50 (IDH1 R132H) was less than 100 nM and the IC50 [1] was less than 100 nM.
Work on CCN1Cc2c(ccnc2N[C@@H](C)c2cc(F)c(-c3cc(C(C)(C)F)ncc3CF)cc2F)C1=O [Compound 139, (S)-4-((1-(2,5-difluoro-4-(5-(fluoromethyl)-2-(2-fluoropropan-2-yl)pyridin-4-yl)phenyl)ethyl)amino)-2-ethyl-2,3-dihydro-1H-pyrrolo[3,4-c]pyridin-1-one] yielded an IC50 (IDH1 R132C) of 100 to 500 nM, an IC50 (IDH1 R132H) of less than 100 nM and an IC50 [1] of less than 100 nM.
For CCN1Cc2c(ccnc2N[C@@H](C)c2cc(F)c(-c3cc(C(F)(F)F)cc(OC)n3)cc2F)C1=O [Compound 142, (S)-4-((1-(2,5-difluoro-4-(6-methoxy-4-(trifluoromethyl)pyridin-2-yl)phenyl)ethyl)amino)-2-ethyl-2,3-dihydro-1H-pyrrolo[3,4-c]pyridin-1-one], the IC50 (IDH1 R132C) was 100 to 500 nM, the IC50 (IDH1 R132H) was less than 100 nM and the IC50 [1] was 100 to 500 nM.
With CCN1Cc2c(ccnc2N[C@@H](C)c2ccc(-c3ccnc(C(C)(C)C)c3)c(F)c2F)C1=O [Compound 42, (S)-4-((1-(4-(2-(tert-butyl)pyridin-4-yl)-2,3-difluorophenyl)ethyl)amino)-2-ethyl-2,3-dihydro-1H-pyrrolo[3,4-c]pyridin-1-one] the IC50 (IDH1 R132C) was 100 to 500 nM, the IC50 (IDH1 R132H) was less than 100 nM and the IC50 [1] was 100 to 500 nM.
CCN1Cc2c(ccnc2N[C@@H](C)c2cc(F)c(-c3cc(OC(C)(C)C)c(Cl)cn3)cc2F)C1=O [Compound 152, (S)-4-((1-(4-(4-(tert-butoxy)-5-chloropyridin-2-yl)-2,5-difluorophenyl)ethyl)amino)-2-ethyl-2,3-dihydro-1H-pyrrolo[3,4-c]pyridin-1-one] gave an IC50 (IDH1 R132C) of less than 100 nM, an IC50 (IDH1 R132H) of less than 100 nM and an IC50 [1] of less than 100 nM.
Compound CCN1Cc2c(ccnc2N[C@@H](C)c2cn(-c3ccnc(C(C)(C)C)c3)cn2)C1=O [Compound 56, (S)-4-((1-(1-(2-(tert-butyl)pyridin-4-yl)-1H-imidazol-4-yl)ethyl)amino)-2-ethyl-2,3-dihydro-1H-pyrrolo[3,4-c]pyridin-1-one] has an IC50 (IDH1 R132C) greater than 1000 nM, an IC50 (IDH1 R132H) greater than 1000 nM and an IC50 [1] greater than 1000 nM.
For CCN1Cc2c(ccnc2N[C@@H](C)c2ccc(Oc3ccc4c(c3)ncn4C)c(F)c2)C1=O [Compound 8, (S)-2-ethyl-4-((1-(3-fluoro-4-((1-methyl-1H-benzo[d]imidazol-5-yl)oxy)phenyl)ethyl)amino)-2,3-dihydro-1H-pyrrolo[3,4-c]pyridin-1-one], the IC50 (IDH1 R132C) was greater than 1000 nM, the IC50 (IDH1 R132H) was greater than 1000 nM and the IC50 [1] was greater than 1000 nM.
Compound CCN1Cc2c(ccnc2N[C@@H](C)c2cc(F)c(-c3ccnc(C4CCC4)c3)cc2F)C1=O [Compound 89, (S)-4-((1-(4-(2-cyclobutylpyridin-4-yl)-2,5-difluorophenyl)ethyl)amino)-2-ethyl-2,3-dihydro-1H-pyrrolo[3,4-c]pyridin-1-one] has an IC50 (IDH1 R132C) of 100 to 500 nM, an IC50 (IDH1 R132H) of less than 100 nM and an IC50 [1] of 100 to 500 nM.
CCN1Cc2c(ccnc2N[C@@H](C)c2cc(F)c(-c3cc(C(C)(C)F)c(O)cn3)cc2F)C1=O [Compound 162, (S)-4-((1-(2,5-difluoro-4-(4-(2-fluoropropan-2-yl)-5-hydroxypyridin-2-yl)phenyl)ethyl)amino)-2-ethyl-2,3-dihydro-1H-pyrrolo[3,4-c]pyridin-1-one] was tested, and the IC50 (IDH1 R132C) was 100 to 500 nM, the IC50 (IDH1 R132H) was 100 to 500 nM and the IC50 [1] was 100 to 500 nM.
Work on C[C@H](Nc1nccc2c1CN(CC(F)CF)C2=O)c1ccc(-c2ccnc(C(C)(C)C)c2)c(F)c1 (stereo partly drawn) [Compound 39, 4-(((S)-1-(4-(2-(tert-butyl)pyridin-4-yl)-3-fluorophenyl)ethyl)amino)-2-(2,3-difluoropropyl)-2,3-dihydro-1H-pyrrolo[3,4-c]pyridin-1-one] yielded an IC50 (IDH1 R132C) greater than 1000 nM, an IC50 (IDH1 R132H) of 100 to 500 nM and an IC50 [1] greater than 1000 nM.
CCN1Cc2c(ccnc2N[C@@H](C)c2cnc(-c3cc(C(C)(C)C)ccn3)c(F)c2)C1=O [Compound 44, (S)-4-((1-(4′-(tert-butyl)-3-fluoro-[2,2′-bipyridin]-5-yl)ethyl)amino)-2-ethyl-2,3-dihydro-1H-pyrrolo[3,4-c]pyridin-1-one] was tested, and the IC50 (IDH1 R132C) was greater than 1000 nM, the IC50 (IDH1 R132H) was greater than 1000 nM and the IC50 [1] was 500 to 1000 nM.
